# In PMC8434007 (Molecules, 2021):
# Counter-ions that a name gives are not always drawn. Like-named read-outs stand apart in the source and are kept apart here.
# Tests used:
# Test in all cases: biochemical
# bovine thrombin = target: T1, bovine thrombin (Bos taurus, UniProt P00735); settings: for inhibition at 50 µM: read-out: inhibition percentage ± SEM, thr
# T1 construct: purchased Sigma-Aldrich (Milan, Italy)
# human recombinant fXa = target: T2, human recombinant fXa (Homo sapiens, UniProt P00742); settings: for inhibition at 50 µM: read-out: inhibition percentage ± SEM, fXa
# T2 construct: purchased Chromogenix AB-Instrumentation Laboratories (Milan, Italy)
# T2 sequence (P00742 235-488 limits assumed): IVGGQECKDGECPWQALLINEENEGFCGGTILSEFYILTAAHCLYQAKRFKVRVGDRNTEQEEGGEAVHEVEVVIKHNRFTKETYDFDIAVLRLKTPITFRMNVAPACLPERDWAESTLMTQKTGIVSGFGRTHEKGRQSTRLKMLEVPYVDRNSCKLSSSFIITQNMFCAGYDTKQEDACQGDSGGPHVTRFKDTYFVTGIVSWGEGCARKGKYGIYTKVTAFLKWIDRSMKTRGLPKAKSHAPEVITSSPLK
# T2 sequence (P00742 41-179 partner limits assumed): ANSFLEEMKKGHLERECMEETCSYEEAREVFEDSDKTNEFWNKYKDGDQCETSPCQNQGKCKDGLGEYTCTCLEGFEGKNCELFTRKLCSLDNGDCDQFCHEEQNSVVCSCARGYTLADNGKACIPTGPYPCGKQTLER
# [1] = target: T3, electric eel acetylcholinesterase (eeAChE) (Electrophorus electricus, UniProt O42275); format: biochemical; settings: for inhibition at 10 µM: read-out: inhibition percentage ± SEM, AChE
# T3 construct: AChE (from electric eel) and BChE (from horse serum); from tissue
# T3 sequence (O42275 24-633): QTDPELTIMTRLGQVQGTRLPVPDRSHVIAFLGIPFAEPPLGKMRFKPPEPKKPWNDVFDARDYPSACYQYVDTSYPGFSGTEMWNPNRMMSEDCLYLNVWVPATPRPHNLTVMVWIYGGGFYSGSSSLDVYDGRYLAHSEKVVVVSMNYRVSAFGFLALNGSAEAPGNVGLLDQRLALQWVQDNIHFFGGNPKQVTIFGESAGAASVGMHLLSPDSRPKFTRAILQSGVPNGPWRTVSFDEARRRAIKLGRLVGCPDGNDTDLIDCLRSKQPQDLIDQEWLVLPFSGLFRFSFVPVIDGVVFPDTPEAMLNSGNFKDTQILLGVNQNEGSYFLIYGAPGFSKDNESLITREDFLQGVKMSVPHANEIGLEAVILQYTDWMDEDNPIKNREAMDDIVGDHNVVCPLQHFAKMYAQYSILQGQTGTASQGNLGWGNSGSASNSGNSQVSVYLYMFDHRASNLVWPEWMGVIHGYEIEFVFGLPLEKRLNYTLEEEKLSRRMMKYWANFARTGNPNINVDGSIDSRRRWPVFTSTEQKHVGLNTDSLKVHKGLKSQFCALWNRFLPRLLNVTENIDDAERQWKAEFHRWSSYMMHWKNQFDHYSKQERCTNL
# [2] = target: T4, horse serum butyrylcholinesterase (eqBChE) (Equus caballus, UniProt P81908); settings: for inhibition at 10 µM: read-out: inhibition percentage ± SEM, BChE
# T4 construct: AChE (from electric eel) and BChE (from horse serum); from tissue; host or cells: horse serum
# T4 sequence (P81908 whole entry): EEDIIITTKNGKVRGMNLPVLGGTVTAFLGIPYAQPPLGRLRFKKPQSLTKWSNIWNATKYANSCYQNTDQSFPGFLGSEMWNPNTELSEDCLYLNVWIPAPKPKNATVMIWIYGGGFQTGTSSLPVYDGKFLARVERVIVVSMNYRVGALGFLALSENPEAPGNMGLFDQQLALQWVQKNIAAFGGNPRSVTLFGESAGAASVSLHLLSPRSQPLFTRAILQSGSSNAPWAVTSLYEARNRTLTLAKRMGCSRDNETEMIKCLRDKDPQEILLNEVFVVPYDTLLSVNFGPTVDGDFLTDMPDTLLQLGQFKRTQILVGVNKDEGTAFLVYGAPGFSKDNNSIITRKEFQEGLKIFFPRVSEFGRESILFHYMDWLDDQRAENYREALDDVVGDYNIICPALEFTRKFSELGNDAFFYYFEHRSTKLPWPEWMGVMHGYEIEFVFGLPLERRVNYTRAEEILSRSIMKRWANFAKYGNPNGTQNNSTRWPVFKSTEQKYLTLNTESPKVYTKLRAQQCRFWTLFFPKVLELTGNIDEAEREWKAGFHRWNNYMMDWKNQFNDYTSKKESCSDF
# [3] = bovine serum thrombin, Cheng–Prousoff from IC50, pH 8, read-out: Ki thr
# [4] = human recombinant fXa, Cheng–Prousoff from IC50, pH 8, read-out: Ki fXa
# [5] = electric eel AChE, Cheng–Prousoff from IC50, read-out: Ki AChE
# [6] = horse serum BChE, Cheng–Prousoff from IC50, read-out: Ki BChE
Compound,Ki (bovine thrombin; [3]) [nM],Ki (human recombinant fXa; [4]) [nM],"Ki [1, 5] [nM]","Ki [2, 6] [nM]",also measured
O=C(Nc1cccc(OCCc2ccc(F)cc2)c1)C1CCN(c2ccncc2)CC1 [Compound 7],4460,133,650,5630,–
CC(C)N1CCC(C(=O)Nc2cccc(OCc3cc(-c4ccc(Cl)cc4)on3)c2)CC1 [Compound 24],–,218,6300,3060,inhibition at 50 µM (bovine thrombin; bovine serum thrombin): 15%
"O=C(Nc1ccc(F)cc1)c1cccc(NC(=O)C2CCN(c3ccncc3)CC2)c1 [Compound 9, N-(3-(4-fluorophenylcarbamoyl)phenyl)-1-(pyridin-4-yl)piperidine-4-carboxamide]",4470,4040,270,8250,–
O=C(Nc1cccc(OCc2cccc(F)c2)c1)C1CCN(c2ccncc2)CC1 [Compound 1],6,5600,58,6950,"mechanism of eeAChE inhibition ([1]; Lineweaver–Burk, changed both Vmax and KM): noncompetitive/mixed-type inhibition; Ki ([1]; read-out: Ki eeAChE from replot of Lineweaver–Burk slopes versus inhibitor concentration): 56 nM; experimental ΔΔG score ([1]; thr vs AChE inhibition, one unit higher than predicted by docking): about 1.3 kcal/mol"
N=C(N)N1CCC(C(=O)Nc2cccc(OCc3cc(-c4cccc(Cl)c4)on3)c2)CC1 [Compound 29],15300,388,10000,1120,–
O=C(Nc1cccc(OCc2ccc(F)cc2)c1)C1CCN(c2ccncc2)CC1 [Compound 2],210,1100,240,1210,–
O=C(Nc1cccc(CCc2ccc(F)cc2)c1)C1CCN(c2ccncc2)CC1 [Compound 8],3720,37700,495,8200,–
N=C(N)N1CCC(C(=O)Nc2cccc(OCc3cc(-c4ccc(Cl)s4)on3)c2)CC1 [Compound 31],–,–,–,1620,Ki (human recombinant fXa): 15 nM; inhibition at 10 µM [1]: 31%
O=C(Nc1cccc(OCCc2cccc(F)c2)c1)C1CCN(c2ccncc2)CC1 [Compound 6],2140,488,369,1750,–
CC(C)N1CCC(C(=O)Nc2cccc(OCc3ccc(-c4ccc(Cl)cc4)cc3)c2)CC1 [Compound 22],–,165,3330,–,inhibition at 50 µM (bovine thrombin; bovine serum thrombin): 5%; inhibition at 10 µM ([2]; horse serum BChE): 35%
"[H]/N=C(/N)c1ccc(NCc2nc3cc(C(=O)N(CCC(=O)O)c4ccccn4)ccc3n2C)cc1 [dabigatran, reference compound]",–,–,–,–,Ki (bovine thrombin): 4.2 nM; inhibition at 10 µM ([2]; horse serum BChE): 36%
CC(C)N1CCC(C(=O)Nc2ccccc2OCc2cc(-c3ccc(Cl)cc3)on2)CC1 [Compound 26],13700,7,11500,1110,–
N-(2-(3-chlorobenzyloxy)phenyl)-1-isopropylpiperidine-4-carboxamide [Compound 28],23000,867,7000,4100,–
N=C(N)N1CCC(C(=O)Nc2ccccc2OCc2cc(-c3ccc(Cl)cc3)on2)CC1 [Compound 27],21200,60,–,10000,inhibition at 10 µM [1]: 16%
O=C(Nc1ccccc1OCc1cccc(F)c1)C1CCN(c2ccncc2)CC1 [Compound 5],–,–,–,655,inhibition at 50 µM (bovine thrombin; bovine serum thrombin): 10%; inhibition at 50 µM (human recombinant fXa; human recombinant fXa): 2%; inhibition at 10 µM [1]: 12%
N=C(N)N1CCC(C(=O)Nc2cccc(OCc3ccc(F)cc3)c2)CC1 [Compound 13],20000,33000,10000,260,–

Compound,Ki (bovine thrombin; [3]) [nM],Ki (human recombinant fXa; [4]) [nM],"Ki [1, 5] [nM]","Ki [2, 6] [nM]",also measured
CC(C)N1CCC(C(=O)Nc2cccc(OCc3cc(-c4ccc(Cl)s4)on3)c2)CC1 [Compound 30],16000,90,5100,2130,–
O=C(Nc1ccc(OCc2cccc(F)c2)cc1)C1CCN(c2ccncc2)CC1 [Compound 4],6700,25100,3880,425,–
O=C(Nc1cccc(COc2ccc(F)cc2)c1)C1CCN(c2ccncc2)CC1 [Compound 3],26800,774,165,2600,–
"O=C(Nc1cccc(OCc2ccc(F)cc2)c1)C1CCN(C2CCCC2)CC1 [Compound 15, N-(3-(4-fluorobenzyloxy)phenyl)-1-cyclopentylpiperidine-4-carboxamide]",30000,–,–,115,inhibition at 50 µM (human recombinant fXa; human recombinant fXa): 40%; inhibition at 10 µM [1]: 27%
"O=C(Nc1ccc(OCc2ccc(F)cc2)cc1)C1CCN(C2CCCC2)CC1 [Compound 17, N-(4-(4-fluorobenzyloxy)phenyl)-1-cyclopentylpiperidine-4-carboxamide]",–,–,3520,255,inhibition at 50 µM (bovine thrombin; bovine serum thrombin): 25%; inhibition at 50 µM (human recombinant fXa; human recombinant fXa): 28%
N=C(N)N1CCC(C(=O)Nc2cccc(OCc3ccc(-c4ccc(Cl)cc4)cc3)c2)CC1 [Compound 23],2040,–,5800,90,"Ki (human recombinant fXa; human fXa, read-out: Ki fXa): 31 ± 1 nM"
"O=C(NCc1ccc(F)cc1)c1cccc(NC(=O)C2CCN(c3ccncc3)CC2)c1 [Compound 10, N-(3-(4-fluorobenzylcarbamoyl)phenyl)-1-(pyridin-4-yl)piperidine-4-carboxamide]",10600,2400,255,370,–
"CC(C)N1CCC(C(=O)Nc2cccc(OCc3ccc(F)cc3)c2)CC1 [Compound 14, N-(3-(4-fluorobenzyloxy)phenyl)-1-isopropylpiperidine-4-carboxamide]",–,–,15500,130,"inhibition at 50 µM (bovine thrombin; bovine serum thrombin): 5%; inhibition at 50 µM (human recombinant fXa; human recombinant fXa): 28%; Ki ([2]; eqBChE 0.18 U/mL, butyrylthiocholine iodide 50-300 µM, inhibitor 0-1 µM, x-axis intercept, read-out: Ki eqBChE from replot of Lineweaver–Burk slopes versus [I]): 104 nM"
"CC(C)N1CCC(C(=O)Nc2ccccc2OCc2ccc(Cl)cc2)CC1 [Compound 20, N-(2-(4-chlorobenzyloxy)phenyl)-1-isopropylpiperidine-4-carboxamide]",–,484,–,105,inhibition at 50 µM (bovine thrombin; bovine serum thrombin): 20%; inhibition at 10 µM [1]: 11%
N=C(N)N1CCC(C(=O)Nc2cccc(OCc3cc(-c4ccc(Cl)cc4)on3)c2)CC1 [Compound 25],630,26,11000,7670,–
"O=C(Nc1ccccc1OCc1ccc(F)cc1)C1CCN(C2CCCC2)CC1 [Compound 19, N-(2-(4-fluorobenzyloxy)phenyl)-1-cyclopentylpiperidine-4-carboxamide]",–,–,–,215,inhibition at 50 µM (bovine thrombin; bovine serum thrombin): 12%; inhibition at 50 µM (human recombinant fXa; human recombinant fXa): 28%; inhibition at 10 µM [1]: 35%
"CC(C)N1CCC(C(=O)Nc2ccccc2OCc2ccc(F)cc2)CC1 [Compound 18, N-(2-(4-fluorobenzyloxy)phenyl)-1-isopropylpiperidine-4-carboxamide]",5350,10500,–,378,inhibition at 10 µM [1]: 15%
"N=C(N)N1CCC(C(=O)Nc2ccccc2OCc2ccc(Cl)cc2)CC1 [Compound 21, N-(2-(4-Chlorobenzyloxy)phenyl)-1-amidinopiperidine-4-carboxamide hydrochloride]",25900,60600,–,8200,inhibition at 10 µM [1]: 38%
"O=C(Nc1ccc(F)cc1)Nc1cccc(NC(=O)C2CCN(c3ccncc3)CC2)c1 [Compound 12, 1-(3-(1-(pyridin-4-yl)piperidine-4-carboxamido)phenyl)-3-(4-fluorophenyl)urea]",26700,16500,735,–,inhibition at 10 µM ([2]; horse serum BChE): 15%
"CC(C)N1CCC(C(=O)Nc2ccc(OCc3ccc(F)cc3)cc2)CC1 [Compound 16, N-(4-(4-fluorobenzyloxy)phenyl)-1-isopropylpiperidine-4-carboxamide]",–,–,6250,2360,inhibition at 50 µM (bovine thrombin; bovine serum thrombin): 11%; inhibition at 50 µM (human recombinant fXa; human recombinant fXa): 5%
